Laboratory results as given in patent publication US20260206756A1, “COMPOUNDS AND METHODS OF TREATING OR PREVENTING A BACTERIAL INFECTION IN A PLANT” (Ohio State Innovation Foundation, priority 2023, published 2026).
Values after ≈ are worked out from the molar mass of the structure shown. “Also recorded” adds a separate entry of the source. Read-outs that look alike come from different tables or passages of the source.

Key:
[1] = test system: ‘California Wonder’ pepper seeds; assay: Phytotoxicity on pepper seeds (germination, root and shoot length); type: in vivo, Capsicum annuum; settings: 14 days post treatment; PCs 200 μM; 1.2% thymol; 2% 2,4-D
Method: (§1) Phytotoxicity of the ten selected PCs on pepper tissues. The toxicity of the PCs to plant tissues was assessed on pepper seeds, seedlings, and fruits. […]
Toxicity on seeds. In 2 ml sterile glass vials, 1.5 ml of 1% molten water agar was prepared and supplemented with 200 μM of PCs. Four seeds (‘California Wonder’) were sown into the vials. […] After incubation, seed germination percentage, germling root and shoot length, and necrotic and chlorotic symptoms were recorded from eight treated seeds per treatment group. This was performed twice.

[2] = test system: ‘California Wonder’ pepper seedlings; assay: Phytotoxicity on pepper seedling cotyledons; type: in vivo, Capsicum annuum; settings: 7 days post application; PCs 200 μM; 1.2% thymol; 2% 2,4-D
Method: as §1
Toxicity on seedlings. ‘California Wonder’ pepper seeds were sown in sterile 2 ml glass vials containing 1.5 ml of 1% molten water agar. Four seeds were sown in each vial and incubated for 14 days in the dark at room temperature for the seedlings to sprout. Fifty microliters of PCs (200 μM final concentration) were deposited onto the cotyledons of the seedlings and incubated for another 7 days. After 7 days, necrotic and chlorotic symptoms were assessed for 16 treated seedlings per treatment group. This was performed twice.

[3] = test system: ‘Sunset’ sweet bell pepper fruit; assay: Phytotoxicity on bell pepper fruits; type: in vivo, Capsicum annuum; settings: 7 days post treatment; PCs 200 μM; 1.2% thymol; 2% 2,4-D
Method: as §1
Toxicity on bell pepper fruits. Pepper fruits were thoroughly washed in soapy water and dried prior to PC treatment. On the surface of each fruit Sul of the PCs (200 μM final concentration) were deposited and air dried under a laminar hood for 30 min. The fruits were incubated in the dark at room temperature and monitored daily for necrotic and chlorotic symptoms. This was performed twice.

[4] = test system: Pss SM1042-14R on pepper seedlings; type: in vivo, Pseudomonas syringae pv. syringae; settings: 200 μM, 7 dpi; for Pseudomonas leaf spot incidence, Curative application / Pseudomonas leaf spot incidence, Preventative application: streptomycin 200 μg/ml, CuSO4 200 μM
[5] = test system: Pss SM1042-14R in infested pepper seeds; assay: Antimicrobial efficacy on pepper seeds artificially infested with Pss; type: in vivo, Pseudomonas syringae pv. syringae; settings: 200 μM, 20 min soak
Method: Antimicrobial efficacy of ten selected PCs on pepper seeds artificially infested with Pss SM1042-14R. ‘California Wonder’ pepper seeds were used for artificial infestation with Pss SM1042-14R and PC treatment. Inoculum of Pss SM1042-14R was prepared by growing SM1042-14R in M9 minimal medium overnight as described above. The OD600 was adjusted to 0.1; approximately 1×10^8 CFU/ml. The adjusted inoculum (45 ml of inoculum for 4 g seeds) was transferred to a sterile glass beaker and placed in a Nucerite desiccator (Nalge Sybron, Milwaukee, WI, USA). Seeds were vacuum infiltrated with inoculum at 15 PSI for 5 min. Infested seeds were air-dried in a laminar flow hood at room temperature for 12 h. The dried seeds were transferred to 5 ml sterile tubes and soaked in 1 ml of PCs (200 μM) diluted in sterile water for 20 min. The seeds were air-dried again. Seed aliquots were collected at 1, 3-, 10-, 20-, and 30-days post infestation (dpi, 10 seeds per treatment group per time point). Bacterial populations were estimated by macerating five batches of two seeds per treatment group in 400 μl of 1×PBS in a Whirl Pak bag. […] This was performed twice.

[6] = test system: Pseudomonas syringae pv. syringae (Pss) SM914-13; assay: Dose-response assay (MIC/MBC) in M9 minimal broth; settings: 48 h
Method: (§2) Minimum inhibitory concentration (MIC) and minimum bactericidal concentration (MBC) of the 15 PCs against 10 Pss strains. A dose-response assay was conducted with the 15 PCs identified during the primary screening against 10 Pss strains including the model strain, SM1042-14R. The dose-response assay was conducted as described above with concentrations of PCs ranging from 3.125 to 500 μM. Pss treated with non-amended M9 minimal media, 2% DMSO, or 50 μg/ml kanamycin were used as controls. The plate was incubated in a Sunrise Tecan kinetic microplate reader for 48 h at 28° C. The percentage of inhibition and cell viability were determined as described above.

[7] = test system: Pseudomonas syringae pv. syringae (Pss) SM1038-14; assay: Dose-response assay (MIC/MBC) in M9 minimal broth; settings: 48 h
Method: as §2

[8] = test system: Pseudomonas syringae pv. syringae (Pss) SM51-19; assay: Dose-response assay (MIC/MBC) in M9 minimal broth; settings: 48 h
Method: as §2

[9] = test system: Pseudomonas syringae pv. syringae (Pss) SM156-18; assay: Dose-response assay (MIC/MBC) in M9 minimal broth; settings: 48 h
Method: as §2

[10] = test system: Pseudomonas syringae pv. syringae (Pss) SM1031-14; assay: Dose-response assay (MIC/MBC) in M9 minimal broth; settings: 48 h
Method: (§3) Primary screening of 4,182 SMs was conducted using a high throughput screening method to identify SMs that inhibited the growth of Pss SM1042-14R strain. A fresh bacterial culture of SM1042-14R was grown in M9 minimal broth in a shaking incubator (180 rpm) for 12 h at 28° C. The bacterial culture was normalized to a final optical density (OD600) of 0.05 (c.a., 8.0×10^7 CFU/ml) using a Genesys 20 spectrophotometer (Thermo Scientific, Rockford, IL, USA). In a sterile flat-bottom 96-well plate, 98 μl of the normalized bacterial suspension was challenged with 2 μl of SMs (final concentration of 200 μM). Controls were bacteria challenged with 2% DMSO (positive control; μc+), 50 μg/ml kanamycin (negative control; μc−), or M9 broth alone (blank control). The plate was incubated in a Sunrise Tecan kinetic microplate reader (Tecan Group Ltd., San Jose, CA, USA) for 48 h at 28° C. OD600 was measured every 30 min.
(§4) The plate was agitated for 15 s at 180 rpm before reading the OD600. Growth inhibition of SM1042-14R by the SMs was calculated using the following formula: % of inhibition=(μc+−X)/(μc+−μc−)×100, where μc+ and μc− is the average final OD600 of the positive and negative controls, respectively, and X is the final OD600 of each of the bacterial culture treated with a designated SM. After the 48 h of incubation with the SMs at 28° C., the viability of the bacterial culture was assessed by plating 5 μl of the culture on YDC (Yeast Dextrose Carbonate) agar medium, incubating the plate at 28° C. and monitoring any bacterial colonies on the plate after 48 h.
(§5) A dose-response assay was conducted with the 15 PCs identified during the primary screening against 10 Pss strains including the model strain, SM1042-14R. The dose-response assay was conducted as described above with concentrations of PCs ranging from 3.125 to 500 μM. Pss treated with non-amended M9 minimal media, 2% DMSO, or 50 μg/ml kanamycin were used as controls. The plate was incubated in a Sunrise Tecan kinetic microplate reader for 48 h at 28° C. The percentage of inhibition and cell viability were determined as described above.

[11] = test system: Pseudomonas syringae pv. syringae (Pss) SM109-18; assay: Dose-response assay (MIC/MBC) in M9 minimal broth; settings: 48 h
Method: as §3, §4, §5

[12] = test system: Pseudomonas syringae pv. syringae (Pss) SM1042-14R; assay: Dose-response assay (MIC/MBC) in M9 minimal broth; settings: strain SM1042-14R, 48 h, 28° C.
Method: as §3, §4, §5

[13] = test system: Pseudomonas syringae pv. syringae (Pss) SM155-18; assay: Dose-response assay (MIC/MBC) in M9 minimal broth; settings: 48 h
Method: as §3, §4, §5

[14] = test system: Pseudomonas syringae pv. syringae (Pss) SM1030-14; assay: Dose-response assay (MIC/MBC) in M9 minimal broth; settings: 48 h
Method: as §3, §4, §5

[15] = test system: Pseudomonas syringae pv. syringae (Pss) SM04-2018-04; assay: Dose-response assay (MIC/MBC) in M9 minimal broth; settings: 48 h
Method: as §2

ten Pss strains = assay: Dose-response assay (MIC/MBC), summary across ten Pss strains; type: cell-based, Pseudomonas syringae pv. syringae; settings: Pseudomonas syringae; across the different Pss strains; M9 broth; read-out: MICs and MBCs
Pss SM1042-14R = assay: Antimicrobial resistance studies (single step and sequential passage); settings: Pseudomonas syringae, SM104214R
Method: Antimicrobial resistance studies. […] For the single-step resistance, M9 agar medium amended with 2×MBC of PCs was prepared in a sterile 24-well plate. An overnight culture of SM1042-14R was normalized to OD600 of 1.0 (approximately 10^9 CFU/well). In each of the wells containing different PCs, 50 μl of the adjusted bacterial culture was plated onto the 24 well agar plate. The plate was sealed using parafilm and incubated in the dark at 28° C. for 15 days. After 15 days, any colonies that grew on the 24-well plate were evaluated for MIC and MBC as described above. The experiment was conducted with three replicates per treatment group. SM1042-14R plated on non-amended M9 agar medium, 2% DMSO or 50 μg/ml kanamycin were used as controls.
For sequential passage (sublethal dose) resistance assay, SM1042-14R was grown in M9 minimal broth and adjusted to OD600 of 0.05 (approximately 10^7 CFU/ml). In a 96-well plate, 98 μl of the adjusted bacterial culture was transferred and 0.75×MBC of PC (concentration that allows approximately 70% growth inhibition) was added into the wells. Plates were incubated at 28° C. with 150 rpm shaking for 24 h in the dark. After incubation, cells were centrifuged, the pellet was resuspended in fresh M9 broth amended with 0.75×MBC of PC and grown as described above. […] After 15 passages, MIC, and MBC of the PCs to SM1042-14R were determined as described above. […]

[16] = preventative (1 day prior to inoculation)
[17] = strain SM914-13, M9 broth, 28° C.
[18] = strain SM1038-14, M9 broth, 28° C.
[19] = strain SM51-19, M9 broth, 28° C.
[20] = strain SM156-18, M9 broth, 28° C.
[21] = strain SM1031-14, M9 broth, 28° C.
[22] = strain SM109-18, M9 broth, 28° C.
[23] = strain SM155-18, M9 broth, 28° C.
[24] = strain SM1030-14, M9 broth, 28° C.
[25] = strain SM04-2018-04, M9 broth, 28° C.

## O=C(O)COc1ccc(Cl)cc1Cl [2,4-D]
[1]
  root length of germlings: 1.5±0.7 cm
  shoot length of germlings: 0 cm
[2]
  necrotic or chlorotic symptoms on seedling cotyledons: severe necrotic and chlorotic symptoms; also recorded: caused necrotic or chlorotic symptoms
[3]
  necrotic or chlorotic symptoms on pepper fruit surface: severe necrotic and chlorotic symptoms; also recorded: caused chlorosis and deformation of the fruit surface

## O=S(=O)([O-])[O-].[Cu+2] [CuSO4, copper sulfate]
[4]
  Pseudomonas leaf spot incidence, Curative application: 57%
  Pseudomonas leaf spot incidence, Preventative application: 100%
[4]; curative (1 dpi)
  Pss reduction compared to the DMSO group: 1.1±0.5 log CFU/g
[4]; curative (1 dpi), first trial
  disease severity (number of lesions per two leaves): 28.1±13.9 lesions
[4]; [16]
  disease severity (number of lesions per two leaves): 188.4±163.5 lesions
  reduction in Pss load compared to the DMSO group: 0.05±0.01 log CFU/g
[5]; 20 days post infestation
  reduction in Pss load in infested seeds: 1.9±0.5 log CFU/g

## CCCCCCCCCCCCCCCC[n+]1ccn(CC#N)c1.[Cl-] [PC3]
[4]
  Pseudomonas leaf spot incidence, Curative application: 86%
  Pseudomonas leaf spot incidence, Preventative application: 100%
[6]; [17]
  MBC: 25 µM
  MIC: 12.5 µM
[7]; [18]
  MBC: 50 µM
  MIC: 25 µM
[8]; [19]
  MBC: 50 µM
  MIC: 25 µM
[9]; [20]
  MBC: 50 µM
  MIC: 25 µM
[10]; [21]
  MBC: 25 µM
  MIC: 25 µM
[11]; [22]
  MBC: 25 µM
  MIC: 25 µM
[12]
  MBC: 25 µM
  MIC: 25 µM
[13]; [23]
  MBC: 50 µM
  MIC: 25 µM
[14]; [24]
  MBC: 50 µM
  MIC: 25 µM
[15]; [25]
  MBC: 25 µM
  MIC: 12.5 µM

## CCOc1ccc2nc3cc(N)ccc3c(N)c2c1 [PC7]
[4]
  Pseudomonas leaf spot incidence, Preventative application: 86%
[6]; [17]
  MBC: 50 µM (≈ 12.7 µg/mL)
  MIC: 25 µM (≈ 6.33 µg/mL)
[7]; [18]
  MBC: 100 µM (≈ 25.3 µg/mL)
  MIC: 50 µM (≈ 12.7 µg/mL)
[8]; [19]
  MBC: 200 µM (≈ 50.7 µg/mL)
  MIC: 50 µM (≈ 12.7 µg/mL)
[9]; [20]
  MBC: 100 µM (≈ 25.3 µg/mL)
  MIC: 50 µM (≈ 12.7 µg/mL)
[10]; [21]
  MBC: 100 µM (≈ 25.3 µg/mL)
  MIC: 50 µM (≈ 12.7 µg/mL)
[11]; [22]
  MBC: 100 µM (≈ 25.3 µg/mL)
  MIC: 50 µM (≈ 12.7 µg/mL)
[12]
  MBC: 100 µM (≈ 25.3 µg/mL)
  MIC: 50 µM (≈ 12.7 µg/mL)
[13]; [23]
  MBC: 100 µM (≈ 25.3 µg/mL)
  MIC: 50 µM (≈ 12.7 µg/mL)
[14]; [24]
  MBC: 100 µM (≈ 25.3 µg/mL)
  MIC: 50 µM (≈ 12.7 µg/mL)
[15]; [25]
  MBC: 100 µM (≈ 25.3 µg/mL)
  MIC: 50 µM (≈ 12.7 µg/mL)

## COc1cc(CN(C)Cc2ccccc2)ccc1OCC(O)CN1CCCCCCC1 (stereo not shown) [PC9]
Ten Pss strains
  MBC: 50 to 200 µM (≈ 21.3 to 85.3 µg/mL)
[4]
  Pseudomonas leaf spot incidence, Curative application: 71%
  Pseudomonas leaf spot incidence, Preventative application: 100%
[4]; curative (1 dpi)
  Pss reduction compared to the DMSO group: 1.9±0.7 log CFU/g
[6]; Pseudomonas syringae
  MBC: 200 µM (≈ 85.3 µg/mL)
  MIC: 200 µM (≈ 85.3 µg/mL)
[7]; Pseudomonas syringae
  MBC: 200 µM (≈ 85.3 µg/mL)
  MIC: 100 µM (≈ 42.7 µg/mL)
[8]; Pseudomonas syringae
  MBC: 200 µM (≈ 85.3 µg/mL)
  MIC: 100 µM (≈ 42.7 µg/mL)
[9]; Pseudomonas syringae
  MBC: 200 µM (≈ 85.3 µg/mL)
  MIC: 200 µM (≈ 85.3 µg/mL)
[10]; Pseudomonas syringae
  MBC: 200 µM (≈ 85.3 µg/mL)
  MIC: 200 µM (≈ 85.3 µg/mL)
[11]; Pseudomonas syringae
  MBC: 200 µM (≈ 85.3 µg/mL)
  MIC: 100 µM (≈ 42.7 µg/mL)
[13]; Pseudomonas syringae
  MBC: 200 µM (≈ 85.3 µg/mL)
  MIC: 100 µM (≈ 42.7 µg/mL)
[14]; Pseudomonas syringae
  MBC: 200 µM (≈ 85.3 µg/mL)
  MIC: 100 µM (≈ 42.7 µg/mL)
[15]; Pseudomonas syringae
  MBC: 200 µM (≈ 85.3 µg/mL)
  MIC: 100 µM (≈ 42.7 µg/mL)

## Cn1cc(CNCCCn2ccnc2)c(-c2ccc(Oc3ccccc3)cc2)n1 [PC10]
Ten Pss strains
  MBC: 50 to 200 µM (≈ 19.4 to 77.5 µg/mL)
[4]
  Pseudomonas leaf spot incidence, Curative application: 71%
  Pseudomonas leaf spot incidence, Preventative application: 100%
[5]; 30 dpi
  reduction in Pss load in infested seeds: 1.9±0.2 log CFU/g
[6]; Pseudomonas syringae
  MBC: 200 µM (≈ 77.5 µg/mL)
  MIC: 200 µM (≈ 77.5 µg/mL)
[7]; Pseudomonas syringae
  MBC: 200 µM (≈ 77.5 µg/mL)
  MIC: 200 µM (≈ 77.5 µg/mL)
[8]; Pseudomonas syringae
  MBC: 200 µM (≈ 77.5 µg/mL)
  MIC: 200 µM (≈ 77.5 µg/mL)
[9]; Pseudomonas syringae
  MBC: 200 µM (≈ 77.5 µg/mL)
  MIC: 200 µM (≈ 77.5 µg/mL)
[10]; Pseudomonas syringae
  MBC: 200 µM (≈ 77.5 µg/mL)
  MIC: 200 µM (≈ 77.5 µg/mL)
[11]; Pseudomonas syringae
  MBC: 200 µM (≈ 77.5 µg/mL)
  MIC: 200 µM (≈ 77.5 µg/mL)
[13]; Pseudomonas syringae
  MBC: 200 µM (≈ 77.5 µg/mL)
  MIC: 200 µM (≈ 77.5 µg/mL)
[14]; Pseudomonas syringae
  MBC: 200 µM (≈ 77.5 µg/mL)
  MIC: 200 µM (≈ 77.5 µg/mL)
[15]; Pseudomonas syringae
  MBC: 200 µM (≈ 77.5 µg/mL)
  MIC: 200 µM (≈ 77.5 µg/mL)

## [H]/N=C(/N)N[C@H]1[C@H](O)[C@@H](O)[C@H](O[C@@H]2O[C@@H](C)[C@](O)(C=O)[C@H]2O[C@@H]2O[C@@H](CO)[C@H](O)[C@@H](O)[C@@H]2NC)[C@@H](N/C(N)=N\[H])[C@@H]1O [streptomycin]
[4]
  Pseudomonas leaf spot incidence, Curative application: 86%
  Pseudomonas leaf spot incidence, Preventative application: 71%
[4]; listed as Strep
  Pseudomonas leaf spot incidence, Curative application: 86%
  Pseudomonas leaf spot incidence, Preventative application: 71%
[4]; curative (1 dpi)
  Pss reduction compared to the DMSO group: 2.2±0.5 log CFU/g
[4]; curative (1 dpi), first trial
  disease severity (number of lesions per two leaves): 24.4±18.2 lesions
[4]; [16]
  disease severity (number of lesions per two leaves): 88.8±62.5 lesions
  reduction in Pss load compared to the DMSO group: 1.7±0.8 log CFU/g
[5]; 30 dpi
  reduction in Pss load in infested seeds: 2.0±0 log CFU/g
Pss SM1042-14R; SM1042-14R colonies after the sequential passages resistance assay
  MBC: > 25 µg/mL
Pss SM1042-14R; original culture from glycerol stock
  MBC: 12.5 µg/mL (≈ 21.5 µM)
